Measurements from article PMC7996082, “The translocator protein ligands as mitochondrial functional modulators for the potential anti-Alzheimer agents” (Journal of Enzyme Inhibition and Medicinal Chemistry, 2021).

What was measured:
[1] = MTT assay: HT22 cell viability with compound alone; format: cell-based, mouse; conditions: mouse, HT22 cells; HT22 cell viability after 24 h of treatment with 5 μM compound, no Aβ
Procedure: To a clear 96-well plate (FALCON), the cultured HT-22 cells were seeded in a number of 5,000 per well 24 h prior to the assay. A solution of each test compound (5 µM, 25 µL) was added to each well. After 24 h of incubation at 37 °C, the cells were treated with a 10 µL of MTT solution (3–(4,5-dimethylthiazol-2-yl)-2,5-diphenyltetrazolium bromide, Sigma-Aldrich), incubated for 2 h at 37 °C, and were treated with 135 µL of MTT solubilising solution (10% Triton-X 100 in isopropanol with 0.1 M HCl) for 2 h at 37 °C. The % values of cell viability were determined by using the optical density (OD) values at 560 nm, and normalised by taking the vehicle control (5 µM of DMSO) as […].

CYP2D6 = biological target: T1, CYP2D6 (Homo sapiens, UniProt P10635); assay: CYP inhibition assay (Vivid CYP450 screening kit); format: in vitro ADME; conditions: 10 μM compound
T1 construct: purchased Invitrogen, Madison, WI, USA
Procedure: (§1) Human CYP450 (CYP1A2, 2D6, 2C9, 2C19, and 3A4) activities were determined by using the Vivid® CYP450 screening kit (Invitrogen, Madison, WI, USA) in a clear 96-well plate. Five positive controls were used as 10 mM solutions in MeCN for five different CYP450 enzymes: CYP1A2 (α-naphthoflavone), CYP2D6 (quinidine), CYP2C9 (sulfaphenazole), CYP2C19 (lansoprazole), and CYP3A4 (ketoconazole). Each sample (test compounds, positive inhibition controls, and solvent controls) was added into each well with the Master Pre-Mix [CYP450 BACULOSOMES® Reagent (recombinant human CYP450 isozyme and rabbit NADPHP450 reductase) and Regeneration System (3.3 mM glucose-6-phosphate and 0.3 U/ml glucose-6-phosphate dehydrogenase in 100 mM potassium phosphate, pH 8.0)]. The mixture was incubated for 5 min at 37 °C, and the Vivid® CYP substrates and 0.1 mM NADP^+ buffer were added to initiate the CYP450 enzyme reaction. The % remaining activities of CYP450 were measured after 20 min by using a fluorescent plate reader (Flexstation® 3, Molecular Devices, USA).

CYP2C9 = biological target: T2, CYP2C9 (Homo sapiens, UniProt P11712); assay: CYP inhibition assay (Vivid CYP450 screening kit); format: in vitro ADME; conditions: 10 μM compound
T2 construct: purchased Invitrogen, Madison, WI, USA
Procedure: as §1

CYP1A2 = biological target: T3, CYP1A2 (Homo sapiens, UniProt P05177); assay: CYP inhibition assay (Vivid CYP450 screening kit); format: in vitro ADME; conditions: 10 μM compound
T3 construct: purchased Invitrogen, Madison, WI, USA
T3 sequence (P05177 2-516 limits assumed): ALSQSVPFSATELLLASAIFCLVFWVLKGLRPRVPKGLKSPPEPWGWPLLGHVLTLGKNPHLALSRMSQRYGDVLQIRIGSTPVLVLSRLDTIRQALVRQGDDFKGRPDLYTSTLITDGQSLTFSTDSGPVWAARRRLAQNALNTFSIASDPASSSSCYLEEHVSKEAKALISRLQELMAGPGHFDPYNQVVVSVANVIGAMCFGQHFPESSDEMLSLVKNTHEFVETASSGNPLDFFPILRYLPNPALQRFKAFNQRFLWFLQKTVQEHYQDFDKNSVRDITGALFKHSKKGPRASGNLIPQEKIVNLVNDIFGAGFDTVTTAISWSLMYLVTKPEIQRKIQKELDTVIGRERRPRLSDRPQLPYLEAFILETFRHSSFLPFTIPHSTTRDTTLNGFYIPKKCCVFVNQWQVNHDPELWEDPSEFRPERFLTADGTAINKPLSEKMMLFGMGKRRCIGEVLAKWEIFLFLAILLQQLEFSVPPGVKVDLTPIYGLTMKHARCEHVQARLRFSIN
Procedure: as §1

CYP2C19 = biological target: T4, CYP2C19 (Homo sapiens, UniProt P33261); assay: CYP inhibition assay (Vivid CYP450 screening kit); format: in vitro ADME; conditions: 10 μM compound
T4 construct: purchased Invitrogen, Madison, WI, USA
Procedure: as §1

CYP3A4 = biological target: T5, CYP3A4 (Homo sapiens, UniProt P08684); assay: CYP inhibition assay (Vivid CYP450 screening kit); format: in vitro ADME; conditions: 10 μM compound
T5 construct: purchased Invitrogen, Madison, WI, USA
Procedure: as §1

[2] = Liver microsomal stability; format: in vitro ADME; conditions: human, liver microsomes, 1 µM compound, 0.5 mg/mL microsomes, 30 min, 37 °C; read-out: Human Liver Microsomal Stability (% remaining after 30 min)
Procedure: Liver microsomes (human, dog, rat, and mouse; 0.5 mg/mL) were incubated with 1 µM of each test compound in the presence of potassium phosphate buffer (PPB) for 5 min at 37 °C. A solution of the NADPH regeneration system (#44332000, Oriental Yeast Co., Japan) was added to begin metabolic reactions of liver microsomes. The resulting mixtures were incubated for 30 min at 37 °C, and the reaction was terminated by the addition of a cold MeCN solution containing an internal standard (chlorpropamide). The mixture was separated by centrifugation (14,000 rpm for 5 min at 4 °C), and the supernatant was analysed by LC-MS/MS (Shimadzu Nexera XR system and TSQ vantage; Thermo Scientific).

hERG channel = biological target: T6, hERG channel (Homo sapiens, UniProt Q12809); assay: hERG inhibition assay (automated patch-clamp, CHO-K1 Tet-On hERG cells); format: cell-based; conditions: patch-clamp, ± SD
T6 construct: host or cells: CHO-K1 Tet-On hERG cells
Procedure: For automated patch-clamp NPC-16 Patchliner (Nanion Technologies, München, Germany) recordings, CHO-K1 Tet-On hERG cells (IonGate Biosciences GmbH, Frankfurt, Germany) were plated into 100-mm cell culture dishes. Whole-cell currents were recorded with the intracellular solution containing: 50 mM KCl, 60 mM KF, 10 mM NaCl, 2 mM MgCl2, 20 mM EGTA and 10 mM HEPES (pH 7.2), and with the extracellular solution containing: 140 mM NaCl, 4 mM KCl, 2 mM CaCl2, 1 mM MgCl2, 5 mM Glucose and 10 HEPES (pH 7.4). To assist stable seal formations, the seal enhancer containing: 80 mM NaCl, 3 mM KCl, 35 mM CaCl2, 10 mM MgCl2 and 10 mM HEPES (pH 7.4) was used only at the seal formation step. Prior to the whole-cell recordings, the external seal enhancing solution was exchanged to the extracellular solution described above. hERG channel currents were recorded using the parallel EPC-10 patch-clamp amplifiers (HEKA Elektronik, Lambrecht/Pfalz, Germany), and low-pass filtered (10 kHz) with a 4-pole Bessel filter. Cell suspension and patch solutions were automatically added onto the four recording wells in the microfabricated disposable chip (NPC-16 Chip, Nanion Technologies, München, Germany). To obtain the inhibitory constants, hERG tail currents were evoked by repolarizing steps to −50 mV for 500 ms preceded by a 500-ms depolarisation potential of +20 mV at a holding potential of −80 mV with a 20-s sweep interval. Whole-cell currents were acquired and digitised at 5 kHz using Patchmaster (HEKA Elektronik, Lambrecht/Pfalz, Germany). The extracellular solution was exchanged to the extracellular solution containing each blocker via four pipette tips of NPC-16 Patchliner using a 4-fold volume of solution (40 µL) with a speed of 4 µL/s, and the exchanged blocker solution was applied for 100–200 s to the patch-clamped cells until blocker binding had reached equilibrium by monitoring hERG tail currents. Whole-cell recordings were analysed using the Patchmaster/Fitmaster (HEKA Elektronik, Lambrecht/Pfalz, Germany), IGOR Pro (WaveMetrics Inc., Portland, OR, USA), and the GraphPad Prism 4.0 (GraphPad Software, Inc., La Jolla, CA, USA) software.

T2 sequence (P11712 whole entry): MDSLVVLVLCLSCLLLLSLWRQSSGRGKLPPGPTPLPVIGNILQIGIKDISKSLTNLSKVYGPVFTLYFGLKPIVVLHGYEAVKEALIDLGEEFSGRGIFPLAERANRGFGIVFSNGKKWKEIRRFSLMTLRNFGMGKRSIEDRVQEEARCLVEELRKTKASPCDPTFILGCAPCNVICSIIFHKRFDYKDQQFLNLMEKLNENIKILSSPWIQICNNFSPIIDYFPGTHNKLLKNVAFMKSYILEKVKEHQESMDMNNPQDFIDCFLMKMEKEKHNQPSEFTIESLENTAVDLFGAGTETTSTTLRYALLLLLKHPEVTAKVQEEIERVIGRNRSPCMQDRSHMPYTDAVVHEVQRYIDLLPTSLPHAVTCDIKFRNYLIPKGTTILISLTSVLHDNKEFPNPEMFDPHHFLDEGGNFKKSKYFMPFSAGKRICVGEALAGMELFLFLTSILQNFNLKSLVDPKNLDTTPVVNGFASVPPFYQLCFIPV
T4 sequence (P33261 whole entry): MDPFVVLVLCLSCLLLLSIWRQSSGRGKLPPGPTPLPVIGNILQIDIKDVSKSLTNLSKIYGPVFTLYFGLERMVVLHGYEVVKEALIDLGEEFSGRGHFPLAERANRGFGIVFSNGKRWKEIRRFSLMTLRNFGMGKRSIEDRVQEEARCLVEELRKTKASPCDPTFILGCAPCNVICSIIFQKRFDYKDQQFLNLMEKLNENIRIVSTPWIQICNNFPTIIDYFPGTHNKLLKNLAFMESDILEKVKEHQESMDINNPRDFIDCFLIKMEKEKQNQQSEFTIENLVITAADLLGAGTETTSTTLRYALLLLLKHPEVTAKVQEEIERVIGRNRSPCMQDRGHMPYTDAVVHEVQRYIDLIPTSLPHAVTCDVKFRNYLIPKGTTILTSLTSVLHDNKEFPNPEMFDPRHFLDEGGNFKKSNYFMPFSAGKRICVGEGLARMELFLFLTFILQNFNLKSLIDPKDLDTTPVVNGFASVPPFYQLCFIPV
T5 sequence (P08684 2-503 limits assumed): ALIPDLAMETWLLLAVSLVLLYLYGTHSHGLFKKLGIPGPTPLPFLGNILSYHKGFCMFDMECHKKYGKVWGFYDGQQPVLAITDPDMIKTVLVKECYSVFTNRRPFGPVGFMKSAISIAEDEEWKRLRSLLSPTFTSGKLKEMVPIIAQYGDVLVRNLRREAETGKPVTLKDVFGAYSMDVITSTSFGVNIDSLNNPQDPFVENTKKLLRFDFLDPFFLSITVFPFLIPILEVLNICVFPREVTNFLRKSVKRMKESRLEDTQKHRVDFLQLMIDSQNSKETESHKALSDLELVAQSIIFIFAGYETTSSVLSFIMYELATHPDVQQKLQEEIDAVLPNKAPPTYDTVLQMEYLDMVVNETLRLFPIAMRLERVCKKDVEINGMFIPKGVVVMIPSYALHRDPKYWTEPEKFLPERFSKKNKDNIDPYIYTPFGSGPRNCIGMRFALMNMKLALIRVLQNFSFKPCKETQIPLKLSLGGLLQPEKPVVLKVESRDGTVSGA
T6 sequence (Q12809 whole entry): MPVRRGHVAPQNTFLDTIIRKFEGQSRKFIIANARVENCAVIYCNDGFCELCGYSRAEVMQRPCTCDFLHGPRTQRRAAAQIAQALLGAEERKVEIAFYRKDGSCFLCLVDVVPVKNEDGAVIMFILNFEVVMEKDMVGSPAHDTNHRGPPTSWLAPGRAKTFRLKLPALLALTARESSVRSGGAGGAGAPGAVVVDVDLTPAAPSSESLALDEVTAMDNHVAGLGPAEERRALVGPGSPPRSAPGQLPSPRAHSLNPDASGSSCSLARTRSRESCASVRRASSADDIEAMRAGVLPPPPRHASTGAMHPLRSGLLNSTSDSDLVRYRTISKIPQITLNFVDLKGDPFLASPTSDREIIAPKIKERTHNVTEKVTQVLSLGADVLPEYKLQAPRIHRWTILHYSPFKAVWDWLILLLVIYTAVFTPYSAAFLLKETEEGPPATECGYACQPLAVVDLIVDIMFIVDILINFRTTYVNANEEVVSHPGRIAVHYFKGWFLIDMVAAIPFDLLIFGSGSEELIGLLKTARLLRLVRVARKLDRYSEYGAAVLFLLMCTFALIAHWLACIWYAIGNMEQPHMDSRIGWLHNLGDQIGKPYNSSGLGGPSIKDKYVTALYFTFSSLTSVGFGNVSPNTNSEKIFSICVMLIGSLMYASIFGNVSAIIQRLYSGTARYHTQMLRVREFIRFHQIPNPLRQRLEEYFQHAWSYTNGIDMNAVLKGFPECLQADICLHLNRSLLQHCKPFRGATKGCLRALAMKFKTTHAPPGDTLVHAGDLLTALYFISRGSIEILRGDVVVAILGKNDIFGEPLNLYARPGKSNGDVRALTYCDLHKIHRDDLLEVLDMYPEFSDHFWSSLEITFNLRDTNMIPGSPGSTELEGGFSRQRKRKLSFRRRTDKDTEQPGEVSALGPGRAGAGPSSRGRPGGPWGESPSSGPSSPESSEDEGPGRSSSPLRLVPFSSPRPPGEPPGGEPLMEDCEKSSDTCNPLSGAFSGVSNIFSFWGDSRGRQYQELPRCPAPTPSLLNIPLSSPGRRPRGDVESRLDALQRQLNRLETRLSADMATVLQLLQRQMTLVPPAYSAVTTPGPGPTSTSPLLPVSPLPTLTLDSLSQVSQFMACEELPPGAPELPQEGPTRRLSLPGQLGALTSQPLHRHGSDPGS
T1 sequence (P10635 whole entry): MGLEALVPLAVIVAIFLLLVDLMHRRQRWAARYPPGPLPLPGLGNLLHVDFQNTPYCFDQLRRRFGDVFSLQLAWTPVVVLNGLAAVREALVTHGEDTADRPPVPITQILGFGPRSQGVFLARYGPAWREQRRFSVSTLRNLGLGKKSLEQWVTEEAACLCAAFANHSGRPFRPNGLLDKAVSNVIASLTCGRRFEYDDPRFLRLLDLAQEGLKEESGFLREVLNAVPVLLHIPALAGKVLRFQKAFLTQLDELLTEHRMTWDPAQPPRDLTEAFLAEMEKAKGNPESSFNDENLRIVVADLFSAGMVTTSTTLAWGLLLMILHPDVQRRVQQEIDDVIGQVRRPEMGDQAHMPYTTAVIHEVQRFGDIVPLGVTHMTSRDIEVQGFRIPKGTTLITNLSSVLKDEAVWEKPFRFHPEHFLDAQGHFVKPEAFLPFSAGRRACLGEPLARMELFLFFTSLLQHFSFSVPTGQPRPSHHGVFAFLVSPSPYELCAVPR

CYP450 (% remaining Activity at 10 μM) CYP2D6 (CYP2D6) | CYP450 (% remaining Activity at 10 μM) CYP2C9 (CYP2C9) | CYP450 (% remaining Activity at 10 μM) CYP1A2 (CYP1A2) | CYP450 (% remaining Activity at 10 μM) CYP2C19 (CYP2C19) | CYP450 (% remaining Activity at 10 μM) CYP3A4 (CYP3A4) | remaining at 0.5 h, 1 µM [2] | Structure (SMILES) | viability at 24 h, 5 µM [1] | IC50 (hERG channel)
 |  |  |  |  |  | CCOc1ccc(-n2c(SCC(=O)N(CC)CC)nc3sc4c(c3c2=O)CCN(C(C)=O)C4)cc1 [Compound 38] | 77% | 
59.2% | 43.0% | 69.2% | 31.2% | 23.0% | 49.1% | CCOc1ccc(-n2c(SCC(=O)Nc3ccc(C)cc3)nc3sc4c(c3c2=O)CCN(C)C4)cc1 [Compound 55] | 127% | 5.63 ± 1.75 µM
107.0% | 14.9% | 110.5% | 23.2% | 89.1% | 4.3% | CCOc1ccc(-n2c(SCC(=O)N3CCN(Cc4ccccc4)CC3)nc3sc4c(c3c2=O)CCN(C(C)=O)C4)cc1 [Compound 45] | 113% | 
 |  |  |  |  |  | CCOc1ccc(-n2c(SCC(=O)NCc3ccc(C)cc3)nc3sc4c(c3c2=O)CCN(C)C4)cc1 [Compound 54] | 107% | 
 |  |  |  |  |  | COc1ccc(NC(=O)CSc2nc3sc4c(c3c(=O)n2CC(C)C)CCN(C(C)=O)C4)cc1OC [Compound 60] | 96% | 
64.0% | 15.6% | 81.5% | 15.0% | 66.2% | 2.2% | CCOc1ccc(-n2c(SCC(=O)N3CCC(Cc4ccccc4)CC3)nc3sc4c(c3c2=O)CCN(C(C)=O)C4)cc1 [Compound 47] | 94% | 
 |  |  |  |  |  | CCOc1ccc(-n2c(SCC(=O)Nc3ccc(Cl)cc3)nc3sc4c(c3c2=O)CCN(C)C4)cc1 [Compound 53] | 89% | 
95.1% | 61.0% | 143.1% | 64.0% | 51.8% |  | CCCN(CCC)C(=O)CSc1nc2sc3c(c2c(=O)n1-c1ccc(OCC)cc1)CCN(C(C)=O)C3 [Compound 39] | 99% | 5.87 ± 1.18 µM
 |  |  |  |  |  | CCCCNC(=O)CSc1nc2sc3c(c2c(=O)n1-c1ccc(OCC)cc1)CCN(C(C)=O)C3 [Compound 43] | 79% | 
 |  |  |  |  |  | COc1ccc(NC(=O)CSc2nc3sc4c(c3c(=O)n2C(C)C)CCN(C(C)=O)C4)cc1OC [Compound 62] | 94% | 
72.3% | 6.7% | 84.4% | 16.5% | 81.2% | 6.6% | CCOc1ccc(-n2c(SCC(=O)N3CCC(c4ccccc4)CC3)nc3sc4c(c3c2=O)CCN(C(C)=O)C4)cc1 [Compound 46] | 86% | 
57.8% | 33.7% | 35.8% | 20.3% | 20.7% | 63.4% | CCOc1ccc(-n2c(SCC(=O)Nc3ccc(OC)c(OC)c3)nc3sc4c(c3c2=O)CCN(C)C4)cc1 [Compound 48] | 106% | 
 |  |  |  |  |  | CCOc1ccc(-n2c(SCC(=O)NCCN3CCCCC3)nc3sc4c(c3c2=O)CCN(C(C)=O)C4)cc1 [Compound 28] | 71% | 
 |  |  |  |  |  | CCCCN(CCCC)C(=O)CSc1nc2sc3c(c2c(=O)n1-c1ccc(OCC)cc1)CCN(C)C3 [Compound 57] | 110% | 
79.8% | 33.6% | 103.0% | 57.4% | 38.9% |  | CCCCN(CCCC)C(=O)CSc1nc2sc3c(c2c(=O)n1-c1ccc(OCC)cc1)CCN(C(C)=O)C3 [Compound 40] | 107% | 2.43 ± 0.48 µM
 |  |  |  |  |  | CCCCn1c(SCC(=O)Nc2ccc(OC)c(OC)c2)nc2sc3c(c2c1=O)CCN(C(C)=O)C3 [Compound 61] | 97% | 
 |  |  |  |  |  | COc1ccc(-n2c(SCC(=O)Nc3ccc(F)c(F)c3)nc3sc4c(c3c2=O)CCN(C(C)=O)C4)cc1 [Compound 27] | 92% | 
 |  |  |  |  |  | CCn1c(SCC(=O)Nc2ccc(OC)c(OC)c2)nc2sc3c(c2c1=O)CCN(C(C)=O)C3 [Compound 58] | 99% | 
 |  |  |  |  |  | CCCn1c(SCC(=O)Nc2ccc(OC)c(OC)c2)nc2sc3c(c2c1=O)CCN(C(C)=O)C3 [Compound 59] | 112% | 
89.2% | 44.5% | 71.9% | 30.5% | 30.9% |  | CCCN(CCC)C(=O)CSc1nc2sc3c(c2c(=O)n1-c1ccc(OCC)cc1)CCN(C)C3 [Compound 56] | 108% | 12.9 ± 3.03 µM
